Results from ChEMBL document CHEMBL5120769, “Sclerotiamides C-H, Notoamides from a Marine Gorgonian-Derived Fungus with Cytotoxic Activities” (J Nat Prod, 2022).
Active and inactive are the calls of the source. No cut-off for these calls is given here.

Tests used:
A549 = assay: Cytotoxicity against human A549 cells assessed as reduction in cell viability by MTT assay; format: functional, cell-based
HepG2 = assay: Cytotoxicity against human HepG2 cells assessed as reduction in cell viability by MTT assay; format: functional, cell-based
SMMC-7721 = assay: Cytotoxicity against human SMMC-7721 cells assessed as reduction in cell viability by MTT assay; format: functional, cell-based
HeLa [1] = assay: Cytotoxicity against human HeLa cells assessed as reduction in cell viability by MTT assay; format: functional, cell-based
HeLa [2] = assay: Induction of cell cycle arrest in human HeLa cells assessed as accumulation at G2 phase at 1 to 5 uM after 24 hrs by Propidium iodide staining based flow cytometric analysis (reference value: 23%); format: functional; details: dose 1-5 µM
HeLa [3] = assay: Induction of mitochondrial membrane potential loss in human HeLa cells at 1 to 10 uM after 24 hrs by JC1 staining based flow cytometric analysis; format: functional, cell-based; details: dose 1-10 µM
HeLa [4] = assay: Activation of MAPK signalling pathway in human HeLa cells assessed as increase in JNK phosphorylation level at 1 to 10 uM after 24 hrs by western blot analysis; format: cell-based; details: filed as activator, dose 1-10 µM, DDE = dose-dependent effect
HeLa [5] = assay: Activation of MAPK signalling pathway in human HeLa cells assessed as increase in ERK phosphorylation level at 1 to 10 uM after 24 hrs by western blot analysis; format: cell-based; details: filed as activator, dose 1-10 µM, DDE = dose-dependent effect
HeLa [6] = assay: Activation of MAPK signalling pathway in human HeLa cells assessed as increase in p38 phosphorylation level at 1 to 10 uM after 24 hrs by western blot analysis; format: cell-based; details: filed as activator, dose 1-10 µM, DDE = dose-dependent effect
HeLa [7] = assay: Induction of apoptosis in human HeLa cells assessed as decrease in Bcl-2 protein expression at 1 to 10 uM after 24 hrs by Western blot analysis; format: functional, cell-based; details: dose 1-10 µM, DDE = dose-dependent effect
HeLa [8] = assay: Induction of apoptosis in human HeLa cells assessed as increase in cleaved PARP protein expression at 1 to 10 uM after 24 hrs by Western blot analysis; format: functional, cell-based; details: dose 1-10 µM, DDE = dose-dependent effect
HeLa [9] = assay: Induction of apoptosis in human HeLa cells assessed as increase in p53 protein expression at 1 to 10 uM after 24 hrs by Western blot analysis; format: functional, cell-based; details: dose 1-10 µM, DDE = dose-dependent effect
HeLa [10] = assay: Induction of apoptosis in human HeLa cells assessed as increase in late apoptotic cells at 1 to 10 uM after 24 hrs by Annexin V staining based flow cytometric analysis; format: functional, cell-based; details: dose 1-10 µM
HeLa [11] = assay: Induction of ROS generation in human HeLa cells at 1 to 10 uM after 24 hrs by DCFH-DA staining based fluorescence microscopic assay; format: functional, cell-based; details: dose 1-10 µM
HeLa [12] = assay: Inhibition of colony formation in human HeLa cells assessed as reduction in cell colonies at 4 uM after 10 days by crystal violet staining based assay relative to control; format: functional; details: time 10.0 day, DDE = dose-dependent effect
HeLa [13] = assay: Induction of apoptosis in human HeLa cells assessed as increase in Bax protein expression at 1 to 10 uM after 24 hrs by Western blot analysis; format: functional, cell-based; details: dose 1-10 µM, DDE = dose-dependent effect
HeLa [14] = assay: Induction of apoptosis in human HeLa cells assessed as nuclear condensation at 1 to 10 uM after 24 hrs by Hoechst 33342 staining based fluorescence microscopic assay; format: functional, cell-based; details: dose 1-10 µM
HeLa [15] = assay: Induction of apoptosis in human HeLa cells assessed as increase in caspase 3 protein expression at 1 to 10 uM after 24 hrs by Western blot analysis; format: functional, cell-based; details: dose 1-10 µM, DDE = dose-dependent effect
HeLa [16] = assay: Induction of apoptosis in human HeLa cells assessed as increase in early apoptotic cells at 1 to 10 uM after 24 hrs by Annexin V staining based flow cytometric analysis; format: functional, cell-based; details: dose 1-10 µM
HeLa [17] = assay: Induction of apoptosis in human HeLa cells assessed as increase in cytochrome C protein expression at 1 to 10 uM after 24 hrs by Western blot analysis; format: functional, cell-based; details: dose 1-10 µM, DDE = dose-dependent effect

Structure (SMILES)	IC50 (A549)	IC50 (HepG2)	IC50 (SMMC-7721)	IC50 (HeLa [1])	also measured
CC1(C)C=Cc2c(ccc3c2[N+]([O-])=C2C(C)(C)C4C[C@]56CCCN5C(=O)C4(NC6=O)[C@@H](O)[C@@]23O)O1 (some centres undefined)	> 10 µM	> 10 µM	> 10 µM	> 10 µM	
Cc1c(O)c(C)c2oc(=O)c3c(c2c1C)O[C@@]12C(=[N+]([O-])c4c1ccc1c4C=CC(C)(C)O1)C(C)(C)[C@@H]1C[C@]45CCCN4C(=O)[C@]1(NC5=O)[C@H]32	7.8 µM	8.1 µM	6.7 µM	7.9 µM	
CC1(C)C=Cc2c(ccc3c4c([nH]c23)C(C)(C)[C@@H]2C[C@]35CCCN3C(=O)[C@]23[C@H]4NC(C)(C)N3C5=O)O1	> 10 µM	> 10 µM	> 10 µM	> 10 µM	
CC1(C)C=Cc2c(ccc3c4c(n(O)c23)C(C)(C)[C@@H]2C[C@]35CCCN3C(=O)[C@]23[C@H]4NC(C)(C)N3C5=O)O1	1.6 µM	1.8 µM	1.5 µM	1.7 µM	Activity (HeLa [2]): 38%; Activity (HeLa [3]): Active; Activity (HeLa [4]): Dde; Activity (HeLa [5]): Dde; Activity (HeLa [6]): Dde; Activity (HeLa [7]): Dde; Activity (HeLa [8]): Dde; Activity (HeLa [9]): Dde; Activity (HeLa [10]): Active; Activity (HeLa [11]): Active; inhibition (HeLa [12]): Dde; Activity (HeLa [13]): Dde; Activity (HeLa [14]): Active; Activity (HeLa [15]): Dde; Activity (HeLa [16]): Active; Activity (HeLa [17]): Dde
Cc1c(O)c(C)c2oc(=O)c(C3=C4C(=[N+]([O-])c5c4ccc4c5C=CC(C)(C)O4)C(C)(C)[C@@H]4C[C@]56CCCN5C(=O)[C@]34NC6=O)c(O)c2c1C	> 10 µM	> 10 µM	> 10 µM	> 10 µM	
CC1(C)C=Cc2c(ccc3c2N2O[C@@H]4O[C@@]2(C3=O)C(C)(C)C2C[C@]35CCCN3C(=O)C24NC5=O)O1 (some centres undefined)	> 10 µM	> 10 µM	> 10 µM	> 10 µM	
CC(=O)O[C@H]1C(=O)[C@@]2(C)[C@H]([C@H](OC(=O)c3ccccc3)[C@]3(O)C[C@H](OC(=O)[C@H](O)[C@@H](NC(=O)c4ccccc4)c4ccccc4)C(C)=C1C3(C)C)[C@]1(OC(C)=O)CO[C@@H]1C[C@@H]2O [PACLITAXEL]	0.05 µM	0.06 µM	0.07 µM	0.05 µM	
